# Experimental data published in US10981894B2, “Melanocortin subtype-2 receptor (MC2R) antagonists and uses thereof” (Crinetics Pharmaceuticals, Inc., priority 2018, dated 2021).
# Target: hMC2 receptor (Homo sapiens, UniProt Q01718)
# Assay: hMC2 membrane binding assay ([125I]ACTH (1-39) Tyr23, SPA)
# Set-up: scale not given here
# Settings: crude hMC2R membranes from CRE-bla-CHO-K1 cells expressing hMC2 receptor and hMRAP; [125I]ACTH (1-39) Tyr23 0.2 nM; 1.5 hours at room temperature; read-out: MC2R binding potency
# Description: Crude membrane fractions are prepared from CRE-bla-CHO-K1 cells stably expressing hMC2 receptor and hMRAP accessory protein (Thermo Fisher). The cells are grown to 85-100% confluence on standard tissue culture dishes in GlutaMax DMEM growth media (Gibco) with following additives: 10% dialyzed FBS (Gemini), 0.1 mM NEAA (Gibco), 25 mM HEPES (Gibco), 5 μg/mL blasticidin (Goldbio), 100 μg/mL zeocin (Invitrogen), 600 μg/mL hygromycin (Goldbio). To prepare membranes, cells are scraped and collected in 1× Dulbecco's phosphate buffered saline (Corning) and then pelleted at 1000 RPM's. The cell pellet is reconstituted in membrane preparation buffer (20 mM HEPES, 6 mM MgCl2 and 1 mM EGTA, protease inhibitor tablets (Pierce) adjusted to pH 7.4), homogenized using a dounce homogenizer, and the resulting membrane fraction is pelleted by centrifugation at 12,000 RPM's. The membrane pellet is resuspended in membrane preparation buffer, snap freezed and stored at −80° C. for later use.
# Binding Assay for hMC2 Antagonists Protocol:
# The hMC2 membrane binding assay utilizes the following components: radiolabel [^125I]ACTH (1-39) Tyr23 (PerkinElmer), wheatgerm agglutinin coated PVT SPA beads (PerkinElmer), crude hMC2R membranes, and compounds. Briefly hMC2R membranes are incubated with SPA beads in binding assay buffer (50 mM HEPES, 5 mM MgCl2, 1 mM CaCl2, 0.2% BSA, protease inhibitor tablets (Pierce) adjusted to pH7.4) prior to assay initiation. A dose response of compound (the final concentration of compound are typically 0-10,000 nM), SPA membranes, and [^125I]ACTH (1-39) Tyr23 at a final concentration of 0.2 nM is plated in a 96-well assay plate and allowed to incubate 1.5 hours at room temperature. Assay plates are read using a Top Count NXT and Ki values for compounds are determined using a GraphPad Prism 6 non-linear regression analysis.
# hMC2 receptor, sequence (Q01718 whole entry): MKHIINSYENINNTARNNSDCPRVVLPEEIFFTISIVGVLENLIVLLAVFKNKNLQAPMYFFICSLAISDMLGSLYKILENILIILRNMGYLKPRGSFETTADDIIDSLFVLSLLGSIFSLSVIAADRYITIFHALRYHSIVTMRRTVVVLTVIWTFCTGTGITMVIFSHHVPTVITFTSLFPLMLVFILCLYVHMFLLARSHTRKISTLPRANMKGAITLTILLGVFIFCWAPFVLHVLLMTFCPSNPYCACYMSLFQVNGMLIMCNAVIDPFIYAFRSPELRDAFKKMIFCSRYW
# hMC2 receptor, sequence (Q8TCY5 whole entry partner): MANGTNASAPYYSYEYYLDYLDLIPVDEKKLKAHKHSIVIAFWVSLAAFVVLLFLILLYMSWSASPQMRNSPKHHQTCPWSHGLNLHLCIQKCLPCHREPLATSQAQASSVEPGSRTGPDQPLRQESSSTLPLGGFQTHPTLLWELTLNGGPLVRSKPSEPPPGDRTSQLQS
row,Ki [nM],Compound
1,10 to 100,"CC[C@@H]1CN(C(=O)c2ccc(C(F)(F)F)cc2Cl)CCN1c1ccc(-c2ccccc2C(=O)NC)cc1C(=O)NCCN [Compound 1-20, (R)-N3′-(2-aminoethyl)-4′-(4-(2-chloro-4-(trifluoromethyl)benzoyl)-2-ethylpiperazin-1-yl)-N2-methyl-[1,1′-biphenyl]-2,3′-dicarboxamide]"
2,10 to 100,"CCOc1ccccc1-c1ccc(N2CCN(C(=O)c3ccc(C(F)(F)F)cc3Cl)C[C@H]2CC)c(C(=O)NCCCN)c1 [Compound 1-23, N-(3-aminopropyl)-4-[(2R)-4-[2-chloro-4-(trifluoromethyl)benzoyl]-2-ethylpiperazin-1-yl]-2′-ethoxy-[1,1′-biphenyl]-3-carboxamide]"
3,< 10,"CCOc1ccccc1-c1ccc(N2CCN(C(=O)c3ccc(Cl)cc3C(F)(F)F)C[C@H]2CC)c(C(=O)NCCN)c1 [Compound 1-25, N-(2-aminoethyl)-4-[(2R)-4-[4-chloro-2-(trifluoromethyl)benzoyl]-2-ethylpiperazin-1-yl]-2′-ethoxy-[1,1′-biphenyl]-3-carboxamide]"
4,< 10,"CCOc1ccccc1-c1ccc(N2CCN(C(=O)c3ccccc3-c3ccc(CN)c(F)c3)C[C@H]2CC)c(C(=O)NCCN)c1 [Compound 1-26, N-(2-aminoethyl)-4-[(2R)-4-[4′-(aminomethyl)-3′-fluoro-[1,1′-biphenyl]-2-carbonyl]-2-ethylpiperazin-1-yl]-2′-ethoxy-[1,1′-biphenyl]-3-carboxamide]"
5,< 10,"CCOc1ccccc1-c1ccc(N2CCN(C(=O)c3c(F)cc(C)cc3-c3ccc(CN)cc3)C[C@H]2CC)c(C(=O)NCCN)c1 [Compound 1-27, N-(2-aminoethyl)-4-[(2R)-4-[4′-(aminomethyl)-3-fluoro-5-methyl-[1,1′-biphenyl]-2-carbonyl]-2-ethylpiperazin-1-yl]-2′-ethoxy-[1,1′-biphenyl]-3-carboxamide]"
6,10 to 100,"CCOc1cccnc1-c1ccc(N2CCN(C(=O)c3ccc(C(F)(F)F)cc3Cl)C[C@H]2CC)c(C(=O)NCCN)c1 [Compound 1-32, N-(2-aminoethyl)-2-[(2R)-4-[2-chloro-4-(trifluoromethyl)benzoyl]-2-ethylpiperazin-1-yl]-5-(3-ethoxypyridin-2-yl)benzamide]"
7,10 to 100,"CCOc1cnccc1-c1ccc(N2CCN(C(=O)c3ccc(C(F)(F)F)cc3Cl)C[C@H]2CC)c(C(=O)NCCN)c1 [Compound 1-33, N-(2-aminoethyl)-2-[(2R)-4-[2-chloro-4-(trifluoromethyl)benzoyl]-2-ethylpiperazin-1-yl]-5-(3-ethoxypyridin-4-yl)benzamide]"
8,< 10,"CCOc1ncccc1-c1ccc(N2CCN(C(=O)c3ccc(C(F)(F)F)cc3Cl)C[C@H]2CC)c(C(=O)NCCN)c1 [Compound 1-34, N-(2-aminoethyl)-2-[(2R)-4-[2-chloro-4-(trifluoromethyl)benzoyl]-2-ethylpiperazin-1-yl]-5-(2-ethoxypyridin-3-yl)benzamide]"
9,< 10,"CCOc1ccncc1-c1ccc(N2CCN(C(=O)c3ccc(C(F)(F)F)cc3Cl)C[C@H]2CC)c(C(=O)NCCN)c1 [Compound 1-35, N-(2-aminoethyl)-2-[(2R)-4-[2-chloro-4-(trifluoromethyl)benzoyl]-2-ethylpiperazin-1-yl]-5-(4-ethoxypyridin-3-yl)benzamide]"
10,< 10,"CCOc1ncccc1-c1ccc(N2CCN(C(=O)c3ccc(F)cc3-c3ccc(CN)cc3)C[C@H]2CC)c(C(=O)NCCN)c1 [Compound 1-36, N-(2-aminoethyl)-2-[(2R)-4-[4′-(aminomethyl)-5-fluoro-[1,1′-biphenyl]-2-carbonyl]-2-ethylpiperazin-1-yl]-5-(2-ethoxypyridin-3-yl)benzamide]"
11,< 10,"CCOc1ncccc1-c1ccc(N2CCN(C(=O)c3ccc(Cl)cc3C(F)(F)F)C[C@H]2CC)c(C(=O)NCCN)c1 [Compound 1-37, N-(2-aminoethyl)-2-[(2R)-4-[4-chloro-2-(trifluoromethyl)benzoyl]-2-ethylpiperazin-1-yl]-5-(2-ethoxypyridin-3-yl)benzamide]"
12,< 10,"CCOc1ncccc1-c1ccc(N2CCN(C(=O)c3ccc(F)cc3Cl)C[C@H]2CC)c(C(=O)NCCN)c1 [Compound 1-38, N-(2-aminoethyl)-2-[(2R)-4-(2-chloro-4-fluorobenzoyl)-2-ethylpiperazin-1-yl]-5-(2-ethoxypyridin-3-yl)benzamide]"
13,< 10,"CCOc1ncccc1-c1ccc(N2CCN(C(=O)c3ccc(Cl)cc3N3CC[C@H](CN)C3)C[C@H]2CC)c(C(=O)NCCN)c1 [Compound 1-40, N-(2-aminoethyl)-2-[(2R)-4-{2-[(3R)-3-(aminomethyl)pyrrolidin-1-yl]-4-chlorobenzoyl}-2-ethylpiperazin-1-yl]-5-(2-ethoxypyridin-3-yl)benzamide]"
14,< 10,"CCOc1ncccc1-c1ccc(N2CCN(C(=O)c3ccc(Cl)cc3N3CC[C@@H](CN)C3)C[C@H]2CC)c(C(=O)NCCN)c1 [Compound 1-41, N-(2-aminoethyl)-2-[(2R)-4-{2-[(3S)-3-(aminomethyl)pyrrolidin-1-yl]-4-chlorobenzoyl}-2-ethylpiperazin-1-yl]-5-(2-ethoxypyridin-3-yl)benzamide]"
15,< 10,"CCOc1ncccc1-c1ccc(N2CCN(C(=O)c3ccc(Cl)cc3Cl)C[C@H]2CC)c(C(=O)NCCN)c1 [Compound 1-42, N-(2-aminoethyl)-2-[(2R)-4-(2,4-dichlorobenzoyl)-2-ethylpiperazin-1-yl]-5-(2-ethoxypyridin-3-yl)benzamide]"
16,< 10,"CCOc1ncccc1-c1ccc(N2CCN(C(=O)c3ccc(C)cc3Cl)C[C@H]2CC)c(C(=O)NCCN)c1 [Compound 1-43, N-(2-aminoethyl)-2-[(2R)-4-(2-chloro-4-methylbenzoyl)-2-ethylpiperazin-1-yl]-5-(2-ethoxypyridin-3-yl)benzamide]"
17,< 10,"CCOc1ncccc1-c1ccc(N2CCN(C(=O)c3c(F)cc(C)cc3-c3ccc(CN)cc3)C[C@H]2CC)c(C(=O)NCCN)c1 [Compound 1-44, N-(2-aminoethyl)-2-[(2R)-4-[4′-(aminomethyl)-3-fluoro-5-methyl-[1,1′-biphenyl]-2-carbonyl]-2-ethylpiperazin-1-yl]-5-(2-ethoxypyridin-3-yl)benzamide]"
18,< 10,"CCOc1ncccc1-c1ccc(N2CCN(C(=O)c3ccc(Cl)cc3C(F)(F)F)C[C@H]2CC)c(C(=O)N[C@@H]2CCNC2)c1 [Compound 1-45, 2-[(2R)-4-[4-chloro-2-(trifluoromethyl)benzoyl]-2-ethylpiperazin-1-yl]-5-(2-ethoxypyridin-3-yl)-N-[(3R)-pyrrolidin-3-yl]benzamide]"
19,< 10,"CCOc1ncccc1-c1ccc(N2CCN(C(=O)c3ccc(Cl)cc3C(F)(F)F)C[C@H]2CC)c(C(=O)NCCNC)c1 [Compound 1-46, 2-[(2R)-4-[4-chloro-2-(trifluoromethyl)benzoyl]-2-ethylpiperazin-1-yl]-5-(2-ethoxypyridin-3-yl)-N-[2-(methylamino)ethyl]benzamide]"
20,< 10,"CCOc1ncccc1-c1ccc(N2CCN(C(=O)c3ccc(Cl)cc3C(F)(F)F)C[C@H]2CC)c(C(=O)NCCN(C)C)c1 [Compound 1-47, 2-[(2R)-4-[4-chloro-2-(trifluoromethyl)benzoyl]-2-ethylpiperazin-1-yl]-N-[2-(dimethylamino)ethyl]-5-(2-ethoxypyridin-3-yl)benzamide]"
21,< 10,"CCOc1ncccc1-c1ccc(N2CCN(C(=O)c3ccc(Cl)cc3C(F)(F)F)C[C@H]2CC)c(C(=O)N[C@@H]2CCN(C)C2)c1 [Compound 1-48, 2-[(2R)-4-[4-chloro-2-(trifluoromethyl)benzoyl]-2-ethylpiperazin-1-yl]-5-(2-ethoxypyridin-3-yl)-N-[(3R)-1-methylpyrrolidin-3-yl]benzamide]"
22,< 10,"CCOc1ncccc1-c1ccc(N2CCN(C(=O)c3ccc(Cl)cc3C(F)(F)F)C[C@H]2CC)c(C(=O)NCCN2CCCC2)c1 [Compound 1-49, 2-[(2R)-4-[4-chloro-2-(trifluoromethyl)benzoyl]-2-ethylpiperazin-1-yl]-5-(2-ethoxypyridin-3-yl)-N-[2-(pyrrolidin-1-yl)ethyl]benzamide]"
23,< 10,"CCOc1ncccc1-c1ccc(N2CCN(C(=O)c3ccc(C(F)(F)F)cc3N3CCC(CN)C3)C[C@H]2CC)c(C(=O)NCCN)c1 (stereo partly drawn) [Compound 1-50, N-(2-aminoethyl)-2-[(2R)-4-{2-[3-(aminomethyl)pyrrolidin-1-yl]-4-(trifluoromethyl)benzoyl}-2-ethylpiperazin-1-yl]-5-(2-ethoxypyridin-3-yl)benzamide]"
24,< 10,"CCOc1ncccc1-c1ccc(N2CCN(C(=O)c3ccc(F)cc3N3CCC(CN)C3)C[C@H]2CC)c(C(=O)NCCN)c1 (stereo partly drawn) [Compound 1-51, N-(2-aminoethyl)-2-[(2R)-4-{2-[3-(aminomethyl)pyrrolidin-1-yl]-4-fluorobenzoyl}-2-ethylpiperazin-1-yl]-5-(2-ethoxypyridin-3-yl)benzamide]"
